Experimental data from the NIST ThermoML archive (doi:10.1016/j.fluid.2008.09.004).
± gives the expanded uncertainty stated by the source.

Experiments:
[1] = xn = mol fraction of the nth substance listed; details: 101 kPa, Liquid, Vibrating tube method
[2] = molar heat capacity at constant pressure; xn = mol fraction of the nth substance listed; details: 101 kPa, Liquid, Small sample (50 mg) DSC

CCCCn1cc[n+](C)c1.COS(=O)(=O)[O-] [1-butyl-3-methylimidazolium methyl sulfate] + CCO
Details	mass density, [1] [kg/m3]	molar heat capacity at constant pressure, [2] [J/K/mol]
293.15 K, x1 = 0.0511	860.9 ± 0.3	128.1 ± 2
293.15 K, x1 = 0.1025	916.2 ± 0.3	143.3 ± 2.2
293.15 K, x1 = 0.199	–	171.7 ± 2.7
293.15 K, x1 = 0.2016	995 ± 0.2	–
293.15 K, x1 = 0.3106	1055 ± 0.2	204.1 ± 3.2
293.15 K, x1 = 0.4058	1093.4 ± 0.2	232.2 ± 3.6
293.15 K, x1 = 0.5057	1124.7 ± 0.2	262.1 ± 4.1
293.15 K, x1 = 0.6005	1147.9 ± 0.2	290.9 ± 4.5
293.15 K, x1 = 0.69	1166.6 ± 0.2	318.2 ± 4.9
293.15 K, x1 = 0.7834	1182.5 ± 0.2	346.9 ± 5.4
293.15 K, x1 = 0.8815	1196.6 ± 0.2	377.1 ± 5.8
293.15 K, x1 = 0.9368	1203.5 ± 0.2	394 ± 6.1
298.15 K, x1 = 0.0511	856.7 ± 0.3	130 ± 2
298.15 K, x1 = 0.1025	912.2 ± 0.3	145.1 ± 2.2
298.15 K, x1 = 0.199	–	173.4 ± 2.7
298.15 K, x1 = 0.2016	991.2 ± 0.2	–
298.15 K, x1 = 0.3106	1051.3 ± 0.2	205.8 ± 3.2
298.15 K, x1 = 0.4058	1089.8 ± 0.2	234 ± 3.6
298.15 K, x1 = 0.5057	1121.2 ± 0.2	263.9 ± 4.1
298.15 K, x1 = 0.6005	1144.5 ± 0.2	292.8 ± 4.5
298.15 K, x1 = 0.69	1163.1 ± 0.2	320.3 ± 5
298.15 K, x1 = 0.7834	1179.1 ± 0.2	349.1 ± 5.4
298.15 K, x1 = 0.8815	1193.2 ± 0.2	379.5 ± 5.9
298.15 K, x1 = 0.9368	1200.2 ± 0.2	396.5 ± 6.1
303.15 K, x1 = 0.0511	852.6 ± 0.3	131.8 ± 2
303.15 K, x1 = 0.1025	908.2 ± 0.3	146.7 ± 2.3
303.15 K, x1 = 0.199	–	174.9 ± 2.7
303.15 K, x1 = 0.2016	987.4 ± 0.2	–
303.15 K, x1 = 0.3106	1047.6 ± 0.2	207.2 ± 3.2
303.15 K, x1 = 0.4058	1086.3 ± 0.2	235.6 ± 3.7
303.15 K, x1 = 0.5057	1117.7 ± 0.2	265.6 ± 4.1
303.15 K, x1 = 0.6005	1141 ± 0.2	294.7 ± 4.6
303.15 K, x1 = 0.69	1159.7 ± 0.2	322.3 ± 5
303.15 K, x1 = 0.7834	1175.7 ± 0.2	351.2 ± 5.4
303.15 K, x1 = 0.8815	1189.9 ± 0.2	381.7 ± 5.9
303.15 K, x1 = 0.9368	1196.9 ± 0.2	398.9 ± 6.2
308.15 K, x1 = 0.0511	848.5 ± 0.3	133.5 ± 2.1
308.15 K, x1 = 0.1025	904.3 ± 0.3	148.3 ± 2.3
308.15 K, x1 = 0.199	–	176.4 ± 2.7
308.15 K, x1 = 0.2016	983.6 ± 0.2	–
308.15 K, x1 = 0.3106	1043.9 ± 0.2	208.6 ± 3.2
308.15 K, x1 = 0.4058	1082.7 ± 0.2	237.1 ± 3.7
308.15 K, x1 = 0.5057	1114.2 ± 0.2	267.3 ± 4.1
308.15 K, x1 = 0.6005	1137.6 ± 0.2	296.5 ± 4.6
308.15 K, x1 = 0.69	1156.3 ± 0.2	324.2 ± 5
308.15 K, x1 = 0.7834	1172.3 ± 0.2	353.3 ± 5.5
308.15 K, x1 = 0.8815	1186.6 ± 0.2	383.9 ± 5.9
308.15 K, x1 = 0.9368	1193.6 ± 0.2	401.2 ± 6.2
313.15 K, x1 = 0.0511	844.4 ± 0.3	135 ± 2.1
313.15 K, x1 = 0.1025	900.2 ± 0.3	149.7 ± 2.3
313.15 K, x1 = 0.199	–	177.6 ± 2.8
313.15 K, x1 = 0.2016	979.8 ± 0.3	–
313.15 K, x1 = 0.3106	1040.3 ± 0.2	209.9 ± 3.3
313.15 K, x1 = 0.4058	1079.1 ± 0.2	238.5 ± 3.7
313.15 K, x1 = 0.5057	1110.7 ± 0.2	268.9 ± 4.2
313.15 K, x1 = 0.6005	1134.1 ± 0.2	298.2 ± 4.6
313.15 K, x1 = 0.69	1152.9 ± 0.2	326.1 ± 5.1
313.15 K, x1 = 0.7834	1169 ± 0.2	355.3 ± 5.5
313.15 K, x1 = 0.8815	1183.3 ± 0.2	386 ± 6
313.15 K, x1 = 0.9368	1190.3 ± 0.2	403.3 ± 6.2
318.15 K, x1 = 0.0511	840.1 ± 0.3	136.6 ± 2.1
318.15 K, x1 = 0.1025	896.1 ± 0.3	151 ± 2.3
318.15 K, x1 = 0.199	–	178.8 ± 2.8
318.15 K, x1 = 0.2016	975.9 ± 0.3	–
318.15 K, x1 = 0.3106	1036.6 ± 0.2	211.2 ± 3.3
318.15 K, x1 = 0.4058	1075.5 ± 0.2	239.8 ± 3.7
318.15 K, x1 = 0.5057	1107.2 ± 0.2	270.5 ± 4.2
318.15 K, x1 = 0.6005	1130.7 ± 0.2	299.9 ± 4.6
318.15 K, x1 = 0.69	1149.5 ± 0.2	327.9 ± 5.1
318.15 K, x1 = 0.7834	1165.6 ± 0.2	357.3 ± 5.5
318.15 K, x1 = 0.8815	1180 ± 0.2	388 ± 6
318.15 K, x1 = 0.9368	1187 ± 0.2	405.4 ± 6.3
